From patent US20210369720A1, “SYNERGISTIC COMPOSITION HAVING NEUROPROTECTIVE PROPERTIES AND METHODS OF USE THEREOF” (Rutgers, The State University of New Jersey, priority 2018, published 2021)

Columns and labels:
[1] = tested on: Syn^Tg mice; assay: Rotarod, Syn^Tg mice; format: in vivo; details: EHT 12 mg/kg/day in chow and/or caffeine 50 mg/kg/day in drinking water from weaning until six months of age, vs untreated Syn^Tg mice
Excerpt: (§1) Thy1-α-synuclein transgenic mice (Syn^Tg) on BDF1 background overexpressing human wild-type α-synuclein under the control of the Thy1 promoter were maintained by mating heterozygous transgenic females with WT BDF1 males (Rockenstein E, et al. (2002) Differential neuropathological alterations in transgenic mice expressing alpha-synuclein from the platelet-derived growth factor and Thy-1 promoters. J Neurosci Res 68(5):568-578). BDF1 mice (mixed C57BL/6-DBA/2) were generated every three months by mating female C57BL/6 (The Jackson Laboratory) and male DBA/2 mice (Charles River). Experiments were performed with male transgenic mice and their WT littermates. […] Wild-type littermates received regular water and control chow. […] At two months of age, mice were inoculated with α-Syn PFF unilaterally in the striatum. These treatments continued throughout the experiment until animals were sacrificed. Mice were weighed and their food and water intake was quantified weekly. Animals were housed 2-5/cage in an AAALAC approved facility in a temperature- and humidity-controlled environment under a 12-hour light/dark cycle and were maintained on a diet of lab chow and water ad libitum. […]

[2] = tested on: Syn^Tg mice; assay: Wire Hang test, Syn^Tg mice; format: in vivo; details: EHT 12 mg/kg/day in chow and/or caffeine 50 mg/kg/day in drinking water from weaning until six months of age, vs untreated Syn^Tg mice
Excerpt: as §1

[3] = tested on: Syn^Tg mice; assay: Nesting behavior, Syn^Tg mice; format: in vivo; details: EHT 12 mg/kg/day in chow and/or caffeine 50 mg/kg/day in drinking water from weaning until six months of age, vs untreated Syn^Tg mice
Excerpt: as §1

[4] = tested on: Syn^Tg mice; assay: Morris Water Maze, Syn^Tg mice; format: in vivo; details: EHT 12 mg/kg/day in chow and/or caffeine 50 mg/kg/day in drinking water from weaning until six months of age, vs untreated Syn^Tg mice
Excerpt: as §1

[5] = tested on: phosphorylated α-synuclein (p-α-Syn); assay: Western blot of p-α-Syn in cortical tissue lysates, Syn^Tg mice; format: in vivo; details: EHT 12 mg/kg/day and/or caffeine 50 mg/kg/day until six months of age, vs untreated Syn^Tg mice
Excerpt: as §1, with “weekly.” for “weekly. Animals were housed 2-5/cage in an AAALAC approved facility in a temperature- and humidity-controlled environment under a 12-hour light/dark cycle and were maintained on a diet of lab chow and water ad libitum.”
(§2) Human neuroblastoma SH-SY5Y cells were cultured in DMEM-F12 with 10% FBS. […] Protein concentration was determined by bicinchonic acid (BCA) method (Pierce), equal amount of protein was separated on 5-20% SDS-PAGE gel (Genescript) and transferred to nitrocellulose or PVDF membrane (Biorad). […]

[6] = tested on: MAP2; assay: Immunofluorescence staining of MAP2 in the cortex, Syn^Tg mice; format: in vivo; details: EHT 12 mg/kg/day and/or caffeine 50 mg/kg/day until six months of age
Excerpt: as §1

[7] = tested on: PP2A; assay: Western blot of PP2A methylation, striatal tissue lysates of Syn^Tg mice; format: in vivo; details: normalized to total PP2A, EHT 12 mg/kg/day and/or caffeine 50 mg/kg/day
Excerpt: (§3) Thy1-α-synuclein transgenic mice (Syn^Tg) on BDF1 background overexpressing human wild-type α-synuclein under the control of the Thy1 promoter were maintained by mating heterozygous transgenic females with WT BDF1 males (Rockenstein E, et al. (2002) Differential neuropathological alterations in transgenic mice expressing alpha-synuclein from the platelet-derived growth factor and Thy-1 promoters. J Neurosci Res 68(5):568-578). BDF1 mice (mixed C57BL/6-DBA/2) were generated every three months by mating female C57BL/6 (The Jackson Laboratory) and male DBA/2 mice (Charles River). Experiments were performed with male transgenic mice and their WT littermates. […] Wild-type littermates received regular water and control chow. […] At two months of age, mice were inoculated with α-Syn PFF unilaterally in the striatum. These treatments continued throughout the experiment until animals were sacrificed. Mice were weighed and their food and water intake was quantified weekly. Animals were housed 2-5/cage in an AAALAC approved facility in a temperature- and humidity-controlled environment under a 12-hour light/dark cycle and were maintained on a diet of lab chow and water ad libitum. All animal procedures were approved by the Rutgers-Robert Wood Johnson Medical School Institutional Animal Care and Use Committee and were performed according to the National Institutes of Health Guide for the Care and Use of Laboratory Animals.
(§4) Human neuroblastoma SH-SY5Y cells were cultured in DMEM-F12 with 10% FBS. At 50% confluency, cells were treated with 1 gg/ml mouse α-Syn PFF in DMEM-F12 with 1% FBS for 7 days. Medium was refreshed every 3 days. Cell harvesting was done with 2% SDS in PBS supplemented with protease inhibitor (Millipore) and phosphatase inhibitor (Sigma-Aldrich). Lysates were sonicated and boiled at 95° C. for 5 minutes. Protein concentration was determined by bicinchonic acid (BCA) method (Pierce), equal amount of protein was separated on 5-20% SDS-PAGE gel (Genescript) and transferred to nitrocellulose or PVDF membrane (Biorad). Following transfer, membranes were blocked for 1 hour at room temperature in blocking buffer (Li-Cor) or 5% (w/v) BSA/TBS-Tween 0.1% (v/v). Primary antibodies were diluted in blocking buffer or 5% (w/v) BSA/TBS-Tween 0.1% (v/v) and incubated with the membranes at 4° C. overnight. Membranes were washed three times in TBS-Tween and incubated in diluted IRDye 800CW or HRP conjugated secondary antibody for 1 hour at room temperature. Following washing, membranes were scanned by Li-Cor Odyssey CLx infrared imaging system or treated with the Western Lightning ECL-plus reagents (PerkinElmer) and exposed to autoradiography films (LabScientific).

[8] = tested on: α-Syn PFF inoculated WT mice; assay: Rotarod, α-Syn PFF inoculated WT mice; format: in vivo; details: EHT 12 mg/kg/day in diet and/or caffeine 50 mg/kg/day in drinking water from weaning, 6 months post-inoculation
Excerpt: as §1

[9] = tested on: α-Syn PFF inoculated WT mice; assay: Wire Hang test, α-Syn PFF inoculated WT mice; format: in vivo; details: EHT 12 mg/kg/day in diet and/or caffeine 50 mg/kg/day in drinking water from weaning, 6 months post-inoculation
Excerpt: as §1

[10] = tested on: α-Syn PFF inoculated WT mice; assay: Nesting behavior, α-Syn PFF inoculated WT mice; format: in vivo; details: EHT 12 mg/kg/day in diet and/or caffeine 50 mg/kg/day in drinking water from weaning, 6 months post-inoculation
Excerpt: as §1

[11] = tested on: α-Syn PFF inoculated WT mice; assay: Morris Water Maze, α-Syn PFF inoculated WT mice; format: in vivo; details: EHT 12 mg/kg/day and/or caffeine 50 mg/kg/day, 6 months post-inoculation, test also not affected by PFF inoculation
Excerpt: as §1

[12] = tested on: phosphorylated α-synuclein (p-α-Syn); assay: Immunohistochemical staining of p-α-Syn, α-Syn PFF inoculated WT mice; format: in vivo; details: EHT 12 mg/kg/day and/or caffeine 50 mg/kg/day, vs untreated α-Syn PFF inoculated mice
Excerpt: as §3
α-Syn PFF solution was sonicated at 60% amplitude 30 times (0.5 sec on, 0.5 sec off). During the stereotactic surgery, two month old WT C57BL/6 mice were anesthetized by Ketamine/xylazine (90/4.5 mg/kg, i.p., Ketaset from Zoetis, and Anased from Akorn) and positioned in a digital stereotaxic apparatus (Stoelting, Wood Dale, Ill.). A midline sagittal incision was made in the scalp, and a hole was drilled in the skull over the right striatum according to the coordinates below. All injections were made using a Hamilton neuros syringe equipped with a 33 gauge needle and attached to a Quintessential Stereotaxic Injector (Stoelting, Wood Dale, Ill.). A total of 5∝g/2.5 ul of α-Syn PFF was infused in the dorsal striatum (+0.2 mm relative to Bregma, +2.0 mm from midline, +2.6 mm beneath the dura) at a delivery rate of 0.2∝l/min (61). The needle was kept in place for 5 min following the infusion to prevent reflux before withdrawing.
Immunohistochemical analyses were performed as described previously (Lee et al., 2011; 2012). Mice were perfused transcardially with PBS, and brains were removed and post-fixed in 10% formalin at 4° C. overnight. Fixed brains were then sectioned coronally in 30 am thickness using a cryostat and collected as sets of slices with the same interval. Free-floating sections were blocked by 1% BSA and 0.2% Triton X100 in PBS. Sections were then incubated with primary antibody overnight at 4° C. and biotinylated secondary antibody for 1 hour at room temperature.
Vectastain elite ABC kit (Vector Laboratories, Burlingame, Calif.) and 3,3′-diaminobenzidine (Sigma-Aldrich) were used for amplifying and color development. Images were captured by Nikon Eclipse 55i. Staining intensity and phosphorylated α-synuclein (p-α-Syn) aggregate counts were obtained by Image Pro Plus. Intensity calibration was set to the level of a blank area in each image. HSI (hue, saturation and intensity) was used for the color selection with the standard parameters of H: 0-30, S: 0-255 and I: 0-160. […]

[13] = tested on: Tyrosine hydroxylase (TH); assay: Striatal TH staining, α-Syn PFF inoculated WT mice; format: in vivo; details: EHT 12 mg/kg/day and/or caffeine 50 mg/kg/day, vs untreated α-Syn PFF inoculated mice
Excerpt: as §1

[14] = tested on: dopamine; assay: Striatal dopamine content by HPLC-MS, α-Syn PFF inoculated WT mice; format: in vivo; details: each compound alone, EHT 12 mg/kg/day or caffeine 50 mg/kg/day, vs untreated α-Syn PFF inoculated mice
Excerpt: as §1

[15] = tested on: TH positive dopaminergic neurons of the substantia nigra; assay: Nigral TH positive neuron count, α-Syn PFF inoculated WT mice; format: in vivo; details: each compound individually, PFF alone reduced neurons by 51% vs PBS
Excerpt: as §1

[16] = tested on: PP2A; assay: Western blot of PP2A methylation, ipsilateral striatal tissue lysates of α-Syn PFF inoculated mice; format: in vivo; details: EHT 12 mg/kg/day and/or caffeine 50 mg/kg/day, vs untreated α-Syn PFF inoculated mice
Excerpt: as §3
α-Syn PFF solution was sonicated at 60% amplitude 30 times (0.5 sec on, 0.5 sec off). During the stereotactic surgery, two month old WT C57BL/6 mice were anesthetized by Ketamine/xylazine (90/4.5 mg/kg, i.p., Ketaset from Zoetis, and Anased from Akorn) and positioned in a digital stereotaxic apparatus (Stoelting, Wood Dale, Ill.). […]
as §2

[17] = tested on: PP2A; assay: Western blot of PP2A methylation in SH-SY5Y cells challenged with α-Syn PFF; format: cell-based, Human; details: SH-SY5Y cells challenged with mouse α-Syn PFF for 7 days; caffeine and/or EHT added to the medium
Protocol: as §4

[18] = tested on: p-α-Syn; assay: Western blot of p-α-Syn in SH-SY5Y cells challenged with α-Syn PFF; format: cell-based, Human; details: SH-SY5Y cells challenged with mouse α-Syn PFF for 7 days; caffeine and/or EHT added to the medium
Protocol: as §4

[19] = tested on: SH-SY5Y cells; assay: Cytotoxicity of α-Syn PFF by propidium iodide (PI) exclusion in SH-SY5Y cells; format: cell-based, Human; details: SH-SY5Y cells challenged with mouse α-Syn PFF for seven days; vs untreated α-Syn PFF-challenged cells (2.5 fold increase of PI positive cells)
[20] = tested on: A53T mutant α-synuclein fibril injections in the striatum; details: mice, chronic caffeine treatment; cited from earlier work

Cn1c(=O)c2c(ncn2C)n(C)c1=O [Caffeine, 1,3,7-trimethylxanthine, reference compound]
performance on the rotarod [1]: did not show any improvement | performance on the wire hang test [2]: did not show any improvement | nesting behavior [3]: did not show any improvement | performance on the Morris Water Maze [4]: did not show any improvement | p-α-Syn levels by Western blot, cortical tissue lysates [5]: no significant effect | MAP2 in the cortex (neuritic integrity) [6]: did not improve this profile | Demethylated PP2A (demethyl-PP2A) levels [7]: not affected | Methylated PP2A (Methyl-PP2A) levels [7]: did not change | performance on the rotarod [8]: did not affect performance | performance on the wire hang test [9]: did not affect performance | nesting behavior (nest building) [10]: did not affect performance | Learning and memory task on the Morris Water Maze [11]: not affected | p-α-Syn in the contralateral striatum [12]: partially but insignificantly reduced | p-α-Syn in the ipsilateral striatum [12]: partially but insignificantly reduced | TH staining of dopaminergic terminals in the striatum (ipsilateral and contralateral) [13]: no effect | dopamine (DA) content in lysates of the ipsilateral striatum, benefit in words [14]: did not have a significant benefit | prevention of the reduction of TH positive dopaminergic neurons of the substantia nigra [15]: did not prevent this reduction | methyl-PP2A levels [16]: insignificant increase | demethylated PP2A levels [17]: partially reversed this trend | methylated PP2A levels [17]: partially reversed this trend | p-α-Syn levels [18]: no effect | cytotoxicity of α-Syn PFF, number of PI positive cells (cell viability) [19]: modestly protected | protection against A53T mutant α-synuclein fibril injections in the striatum [20]: protect
